# Results from patent publication US4956381A, “Treating tissue calcium depletion or degenerative processes in bone or cartilage” (Sandoz Ltd., priority 1987, dated 1990).
# What was measured:
# recombinant human IL-1 = experiment: Recombinant human IL-1 induced mouse thymocyte proliferation; type: cell-based; details: 75 ng/ml rh IL-1
# Description: (§1) Lymphocyte proliferation is the standard test for monokine activity. It is highly sensitive, though relatively unspecific, with IL-2, phorbol myristate acetate, concanavalin A' g-type-prostaglandin and indomethacin-nall effecting disturbance. Human monocyte culture media are prepared as described under I.I.b. above, diluted 1:10, 1:20 and 1:40 (v:v), and added to […] (obtained from C3H/HeJ mice) Dulbecco's modified Eagle's medium, containing 20 mM hydroxyethyl-piperazin-ethane-sulfonic acid, 12 mM NaHCO3, 2 mM glutamine, 2% foetal bovine serum, 10 μM 2-mercaptoethanol, […] and antibiotics. The cells are incubated for 2 days in 96-well culture plates and the proliferation rate determined using a ^3 H-thymidine pulse (1 μC/well) during the final 6 hours. The incorporated radioactivity is collected on filter paper and counted. […] Thus determined ED50 s for the compounds D2 and K1 each in substantially pure Z-isomeric form in a series of 2 separate experiments each with 3 parallel determinations are of the order of 30 μM
# (§2) In order to rule out an antagonistic effect or a direct influence of the COMPOUNDS OF THE INVENTION on the proliferation of mouse thymocytes which are used above in the LAF-test, the effect of the COMPOUNDS OF THE INVENTION on the incorporation of ^3 H-thymidine Is determined after thymocyte stimulation with recombinant human IL-1 or IL-2.
# pulmonary fibrosis = experiment: Pulmonary fibrosis (bleomycin induced); type: in vivo, New Zealand white rabbits; details: ca. 2.5 to 60 mg/kg/day p.o.; substantially pure Z-isomeric form; vs placebo
# Description: Testing is carried out in accordance with the general methodology described by G. J. Laurent et al. in Eur. J. Clin. Invest. (1981) 11, 441-448. Pulmonary fibrosis is induced in groups of 4 New Zealand white rabbits (aged 127 days at commencement of the experiment), each weighing 2.0-2.5 kg, by intratracheal instillation of 10 mg/kg bleomycin. The lungs of test animals are examined 2, 4 and 8 weeks later.
# human monocytes = experiment: LAF-test (thymocyte proliferation), monokine production by human monocytes; type: cell-based; details: Monocyte, substantially pure Z-isomeric form, 2 separate experiments, 3 parallel determinations, read-out: ED50 (inhibition of monokine production)
# Description: (§3) Mononuclear cells are obtained from the blood of healthy volunteers via centrifugation and cultivated on tissue culture dishes with test compound at varying concentrations [Schnyder et al., J. Immunol., 138, 496-503 (1987)]. The non-adherent lymphocytes are removed after 4 hours by washing several times. Fresh medium, test compound and lipopolysaccharide (LPS) as stimulant are added and the monocytes incubated for further 19 hours. The pooled culture media are diluted 1:10 (v:v) with fresh medium and added to confluent rabbit chondrocytes. MP activity in the chondrocyte culture medium is assayed after a further 2 days. COMPOUNDS OF THE INVENTION, in particular compounds D2 and K1, are active in suppressing monokine release in the above test method at concentrations of the order of from about 30 to about 100 μM. Thus determined ED50 S for the compounds D2 and K1 each in substantially pure Z-isomeric form in a series of 3 or 7 separate experiments each with 3 parallel determinations are, for both compounds, of the order of 60 to 100 μM.
# Lymphocyte proliferation is the standard test for monokine activity. […] The cells are incubated for 2 days in 96-well culture plates and the proliferation rate determined using a ^3 H-thymidine pulse (1 μC/well) during the final 6 hours. The incorporated radioactivity is collected on filter paper and counted. […]
# IL-1 = IL-1 induced secretion of metalloproteinase (MP) in chondrocytes; type: cell-based; details: 2 days incubation
# Description: Furthermore the influence on IL-1 induced secretion of MP is determined using chondrocytes as a target system for IL-1. IL-1 (Genzyme Corporation,USA) is added with or without a COMPOUND OF THE INVENTION or Dexamethasone (control) to chondrocytes and the activity or metalloproteinase is determined in the supernatant media of 2 days incubation period.
# IL-1β = experiment: RIA-Kit IL-1 quantification in human monocyte cultures; type: cell-based
# Description: as §3
# The procedures of example 1.1.b. above are repeated and IL-1 concentrations in recovered, undiluted culture medium determined employing a CISTRON IL-1 radioimmuno assay kit (the CISTRON kit is obtainable from Cistron, 10, Bloomfield Avenue, P.O. Box 2004, Pine Brook, NJ 07 058 USA. It is IL-1β specific and recognises both intra- and extra-cellular material).
# [1] = test system: psoriatic arthritis or seronegative spondylarthrosis or osteoarthrosis; experiment: Clinical trial IV: degenerative joint disease; type: in vivo, human; details: ca. 200 to 1200 mg p.o./day, 8 weeks
# Description: COMPOUND OF THE INVENTION, e.g. compound D2 or K1 in substantially pure Z-isomeric form, is administered at dosages of from ca. 200 to 1200 mg/p.o./day, once or in divided dosages up to 4×daily for 8 weeks. The subjects are examined at a regular interval of 2 weeks for disease progression on parameters such as pain sensation at the joints, evaluation of the functional capacity according to Steinbrocker, hand grip strength or Richtie Index.
# beagle dogs = experiment: Tolerability / pilot toxicology in beagle dogs; type: in vivo; details: 150 and 200 mg/kg p.o., gelatine capsules over 5 weeks, olive oil week 6 to 8; substantially pure Z-isomeric form
# recombinant human IL-2 = experiment: Recombinant human IL-2 induced mouse thymocyte proliferation; type: cell-based; details: 10 ng/ml rh IL-2
# Description: as §1, §2
# periodontal disease = experiment: Clinical trial III: calcium resorption - periodontal disease; type: in vivo, human; details: ca. 400 to 1200 mg p.o./day or injection ca. 0.5 or 1.0 to 5.0 mg per gum pouch; after ca. 2 to 3 weeks
# Description: COMPOUND OF THE INVENTION, e.g. compound D2 or K1 in substantially pure Z-isomeric form, is administered at dosages of from ca. 400 to 1200 mg/p.o./day administered once or in divided dosages up to 4x daily, or by injection into the gum at the site of disease at dosages of the order of about 0.5 or 1.0 to about 5.0 mg into each gum pouch. The subjects are examined at regular weekly or 2x weekly intervals for disease progression.
# [2] = 3H-thymidine incorporation, mouse thymocytes
# [3] = CISTRON IL-1 radioimmuno assay, human monocytes
smiles,measurement,setting,value
"COC1=Cc2ccccc2/C(=C/C(=O)O)c2cc(Cl)sc21 [Compound K1, [2-Chloro-10-methoxy-4H-benzo[4,5]cyclohepta[1,2-b]thiophen-4-ylidene]-acetic acid]",concentration dependency of influence on rh IL-1 induced proliferation,recombinant human IL-1,no concentration dependency is detectable
same,influence on recombinant human IL-1 induced proliferation,recombinant human IL-1; [2],no significant influence
same,pulmonary fibrosis,pulmonary fibrosis,substantial reduction of pulmonary fibrosis
same,IC50,human monocytes,~30 µM
same,influence on IL-1 induced secretion of MP,IL-1,do not influence the IL-1 induced secretion of MP
same,extra-cellular IL-1 level,IL-1β; [3],extra-cellular content is reduced significantly
same,intracellular IL-1 level,IL-1β; [3],remain substantially unaffected
same,IC50,"IL-1β; Homo sapiens, Monocyte, 19 h, substantially pure Z-isomeric form, 2-8 experiments, 3 parallel determinations, read-out: ED50 for extra-cellular IL-1 level suppression",~25 µM
same,condition (degenerative joint disease),[1],improvement in condition after the 8 week treatment period
same,pathological effects,beagle dogs,no pathological effects are observed
same,concentration dependency of influence on rh IL-2 induced proliferation,recombinant human IL-2,no concentration dependency is detectable
same,influence on recombinant human IL-2 induced proliferation,recombinant human IL-2; [2],no significant influence
same,condition (periodontal disease),periodontal disease,marked improvement in condition after ca. 2 to 3 weeks continuous therapy
